In patent US20120165319A1, “INHIBITORS OF INTERLEUKIN-1 BETA CONVERTING ENZYME” (VERTEX PHARMACEUTICALS INCORPORATED, priority 1995, published 2012):
Read-outs that look alike come from different tables or passages of the source.

Tests used:
IL-1β, human whole blood = assay: Whole blood assay for IL-1β production; format: cell-based; settings: read-out: Whole human blood IC50
Method: The whole blood assay is a simple method for measuring the production of IL-1b (or other cytokines) and the activity of potential inhibitors. The complexity of this assay system, with its full complement of lymphoid and inflammatory cell types, spectrum of plasma proteins and red blood cells is an ideal in vitro representation of human in vivo physiologic conditions.
Pyrogen-free syringes (˜30 cc) Pyrogen-free sterile vacuum tubes containing lyophilized Na2EDTA (4.5 mg/10 ml tube) Human whole blood sample (˜30-50 cc) 1.5 ml eppendorf tubes Test compound stock solutions (˜25 mM in DMSO or other solvent) Endotoxin-free sodium chloride solution (0.9%) and HBSS Lipopolysaccharide (Sigma; Cat. # L-3012) stock solution at 1 mg/ml in HBSS
IL-1β ELISA Kit (R & D Systems; Cat # DLB50)
TNFα ELISA Kit (R & D Systems; Cat # DTA50)
Whole Blood Assay Experimental Procedure:
Set incubator or water bath at 30° C. Aliquot 0.25 ml of blood into 1.5 ml eppendorf tubes. Note: be sure to invert the whole blood sample tubes after every two aliquots. Differences in replicates may result if the cells sediment and are not uniformly suspended. Use of a positive displacement pipette will also minimize differences between replicate aliquots.
Prepare drug dilutions in sterile pyrogen-free saline by serial dilution. A dilution series which brackets the apparent Ki for a test compound determined in an ICE inhibition assay is generally used for the primary compound screen.
Add 25 μl test compound dilution or vehicle control and gently mix the sample. Then add 5.0 μl LPS solution (250 ng/ml stocked prepared fresh: 5.0 ng/ml final concentration LPS), and mix again. Incubate the tubes at 30° C. in a water bath for 16-18 hr with occasional mixing. Alternatively, the tubes can be placed in a rotator set at 4 rpm for the same incubation period. This assay should be set up in duplicate or triplicate with the following controls: negative control—no LPS; positive control—no test inhibitor; vehicle control—the highest concentration of DMSO or compound solvent used in the experiment. Additional saline is added to all control tubes to normalize volumes for both control and experimental whole blood test samples
After the incubation period, whole blood samples are centrifuged for 10 minutes at ˜2000 rpm in the microfuge, plasma is transferred to a fresh microfuge tube and centrifuged at 1000×g to pellet residual platelets if necessary. Plasma samples may be stored frozen at −70° C. prior to assay for cytokine levels by ELISA.
We have used R & D Systems (614 McKinley Place N.E. Minneapolis, Minn. 55413) Quantikine kits for measurement of IL-1β and TNF-α. The assays are performed according to the manufacturer's directions.
We have observed IL-1β levels of ˜1-5 ng/ml in positive controls among a range of individuals. A 1:200 dilution of plasma for all samples has been sufficient in our experiments for ELISA results to fall on the linear range of the ELISA standard curves. It may be necessary to optimize standard dilutions if you observe differences in the whole blood assay. Nerad, J. L. et al., J. Leukocyte Biol., 52, pp. 687-692 (1992).

ICE = target: T1, ICE (Homo sapiens, UniProt P29466); assay: Enzyme assay with UV-visible substrate (visible ICE assay, Succinyl-Tyr-Val-Ala-Asp-pNitroanilide); format: biochemical
T1 sequence (P29466 120-297 limits assumed): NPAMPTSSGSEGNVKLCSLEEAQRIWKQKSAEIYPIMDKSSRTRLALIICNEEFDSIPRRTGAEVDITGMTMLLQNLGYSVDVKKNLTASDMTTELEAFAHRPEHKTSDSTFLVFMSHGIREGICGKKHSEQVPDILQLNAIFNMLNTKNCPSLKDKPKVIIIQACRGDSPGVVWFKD
T1 sequence (P29466 317-404 limits assumed): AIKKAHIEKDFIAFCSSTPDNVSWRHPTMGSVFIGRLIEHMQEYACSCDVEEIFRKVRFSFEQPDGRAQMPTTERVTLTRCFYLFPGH
Method in brief: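 Colorimetric caspase-1 activity: 15 min enzyme-inhibitor preincubation (RT), then Suc-Tyr-Val-Ala-Asp-pNA; 405-603 nm kinetics, 20 min, 37° C. Ki from rate fitting.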

[1] = Homo sapiens, * = values obtained upon reassay

CC(=O)N1C[C@H](NC(=O)c2cc(C)c(O)c(C)c2)C(=O)N(CC(=O)N[C@H]2CC(=O)OC2OCc2ccccc2)c2ccccc21 (mixture of isomers) [Compound 670, (3S)-2-Oxo-3-(3,5-dimethyl-4-hydroxybenzoyl)amino-5-acetyl-N-[(2RS,3S)-benzyloxy-5-oxo-tetrahydrofuran-3-yl]-2,3,4,5-tetrahydro-1H-1,5-benzodiazepine-1-acetamide]
IC50 (IL-1β, human whole blood; Homo sapiens, Table 17): 4.5 µM

CC(=O)OCC(=O)N1C[C@H](NC(=O)c2ccccc2)C(=O)N(CC(=O)N[C@H]2CC(=O)OC2OCc2ccccc2)c2ccccc21 (mixture of isomers) [Compound 682, (3S)-2-Oxo-3-benzoylamino-5-(2-acetoxy)acetyl-N-[(2RS,3S)-benzyloxy-5-oxo-tetrahydrofuran-3-yl]-2,3,4,5-tetrahydro-1H-1,5-benzodiazepine-1-acetamide]
IC50 (IL-1β, human whole blood; Homo sapiens, Table 17): 1.3 µM

COCC(=O)N1C[C@H](NC(=O)c2cc(Cl)c(O)c(Cl)c2)C(=O)N(CC(=O)N[C@H]2CC(=O)OC2OCc2ccccc2)c2ccccc21 (mixture of isomers) [Compound 688a, (3S)-2-Oxo-3-(3,5-dichloro-4-hydroxybenzoyl)amino-5-methoxyacetyl-N-[(2RS,3S)-benzyloxy-5-oxo-tetrahydrofuran-3-yl]-2,3,4,5-tetrahydro-1H-1,5-benzodiazepine-1-acetamide]
IC50 (IL-1β, human whole blood; Homo sapiens, Table 17): 3 µM

COCC(=O)N1C[C@H](NC(=O)c2cc(C)c(O)c(C)c2)C(=O)N(CC(=O)N[C@H]2CC(=O)OC2OCc2ccccc2)c2ccccc21 (mixture of isomers) [Compound 688b, (3S)-2-Oxo-3-(3,5-dimethyl-4-hydroxybenzoyl)amino-5-methoxyacetyl-N-[(2RS,3S)-benzyloxy-5-oxo-tetrahydrofuran-3-yl]-2,3,4,5-tetrahydro-1H-1,5-benzodiazepine-1-acetamide]
IC50 (IL-1β, human whole blood; Homo sapiens, Table 17): 1.3 µM

Cc1cc(C(=O)N[C@H]2CN(C(=O)CO)c3ccccc3N(CC(=O)N[C@H]3CC(=O)OC3OCc3ccccc3)C2=O)cc(C)c1O (mixture of isomers) [Compound 690a, (3S)-2-Oxo-3-(3,5-dimethyl-4-hydroxybenzoyl)amino-5-hydroxyacetyl-N-[(2RS,3S)-benzyloxy-5-oxo-tetrahydrofuran-3-yl]-2,3,4,5-tetrahydro-1H-1,5-benzodiazepine-1-acetamide]
IC50 (IL-1β, human whole blood; Homo sapiens, Table 17): 1.6 µM

CN(C)c1cccc(C(=O)N[C@H]2CCC(=O)N3CCC[C@@H](C(=O)N[C@H]4CC(=O)OC4OCc4ccccc4)N3C2=O)c1 (mixture of isomers) [Compound 213g, [1S,9S (2RS,3S)]9-[(3-Dimethylaminobenzoyl)amino]-6,10-dioxo-1,2,3,4,7,8,9,10-octahydro-N-(2-Benzyloxy-5-oxotetrahydrofuran-3-yl)-6H-pyridazino[1,2-a][1,2]diazepine-1-carboxamide]
IC50 (IL-1β, human whole blood; Table 17): 2.2 µM

CCOC1OC(=O)C[C@@H]1NC(=O)[C@@H]1CCCN2C(=O)CC[C@H](NC(=O)c3nccc4ccccc34)C(=O)N12 (mixture of isomers) [Compound 550q, [1S,9S(2RS,3S)]N-(2-Ethoxy-5-oxotetrahydrofuran-3-yl)-6,10-dioxo-9-(isoquinolin-1-oylamino)-1,2,3,4,7,8,9,10-octahydro-6-H-pyridazino[1,2-a][1,2]diazepine-1-carboxamide]
IC50 (IL-1β, human whole blood; Table 17): 0.7 µM

CCOC1OC(=O)C[C@@H]1NC(=O)CN1C(=O)[C@@H](NC(=O)c2cc(C)c(O)c(C)c2)CN(C(=O)CO)c2ccccc21 (mixture of isomers) [Compound 692b, (3S)-2-Oxo-3-(3,5-dimethyl-4-hydroxybenzoyl)amino-5-hydroxyacetyl-N-[(2RS,3S)-ethoxy-5-oxo-tetrahydrofuran-3-yl]-2,3,4,5-tetrahydro-1H-1,5-benzodiazepine-1-acetamide]
IC50 (IL-1β, human whole blood; Table 17): 1.8 µM

CC(C)(C)OC(=O)C[C@@H](C=NOCCc1ccccc1)NC(=O)[C@@H]1CCCN2C(=O)CC[C@H](NC(=O)c3ccccc3)C(=O)N12 [Compound 307b, [3S(1S,9S)3-(9-Benzoylamino-6,10-dioxo-1,2,3,4,7,8,9,10-octahydro-6H-pyridazino-[1,2-a][1,2]diazapine-1-carboxamido)-amino]-4-oxobutanoic acid t-butyl ester, O-(2-(phenyl)ethyl)oxime]
Ki (ICE; Table 5): 0.165 µM
IC50 (IL-1β, human whole blood; * = values obtained upon reassay): 14 µM

O=C[C@H](CC(=O)O)NC(=O)[C@@H]1CCCN2C(=O)CC[C@H](NC(=O)c3ncc[nH]3)C(=O)N12 [Compound 445]
Ki (ICE; Table 5): 0.135 µM
IC50 (IL-1β, human whole blood; [1]): 4 µM

O=C[C@H](CC(=O)O)NC(=O)[C@@H]1CCCN2C(=O)CC[C@H](NC(=O)c3cnns3)C(=O)N12 [Compound 446]
Ki (ICE; Table 5): 0.062 µM
IC50 (IL-1β, human whole blood; [1]): 3 µM

CC(=O)N(C)c1ccc(C(=O)N[C@H]2CCC(=O)N3CCC[C@@H](C(=O)N[C@H](C=O)CC(=O)O)N3C2=O)cc1 [Compound 448]
Ki (ICE; Table 5): 0.13 µM
IC50 (IL-1β, human whole blood; [1]): 4 µM

CC(=O)N1C[C@H](NC(=O)c2ccccc2)C(=O)N(CC(=O)N[C@H](C=O)CC(=O)O)c2c(C)cc(C)cc21 [Compound 605o, (3S)-3-[(3S)-2-Oxo-3-benzoylamino-5-acetyl-2,3,4,5-tetrahydro-7,9-dimethyl-1H-1,5-benzodiazepin-1-acetylamino]-4-oxo-butyric acid]
Ki (ICE; Table 5): 0.072 µM
IC50 (IL-1β, human whole blood; [1]): 18 µM

COc1c(Cl)cc(C(=O)N[C@H]2CN(C(C)=O)c3ccccc3N(CC(=O)N[C@H](C=O)CC(=O)O)C2=O)cc1Cl [Compound 669, (3S)-3-[(3S)-2-Oxo-3-(3,5-dichloro-4-methoxybenzoyl)amino-5-acetyl-2,3,4,5-tetrahydro-1H-1,5-benzodiazepine-1-acetylamino]-4-oxo-butyric acid]
Ki (ICE; Table 17): 0.014 µM
IC50 (IL-1β, human whole blood; Homo sapiens, Table 17): 10 µM

COc1cccc(OC)c1C(=O)C(=O)N[C@H]1CN(C(=O)CO)c2ccccc2N(CC(=O)N[C@H]2CC(=O)OC2OCc2ccccc2)C1=O (stereo partly drawn) [Compound 677, (3S)-2-Oxo-3-(1,6-dimethoxybenzoylformyl)amino-5-(2-hydroxy)acetyl-N-[(2RS,3S)-benzyloxy-5-oxo-tetrahydrofuran-3-yl]-2,3,4,5-tetrahydro-1H-1,5-benzodiazepine-1-acetamide]
IC50 (IL-1β, human whole blood; Homo sapiens, Table 17): 0.61 µM

COCC(=O)N1C[C@H](NC(=O)c2cc(C)c(O)c(C)c2)C(=O)N(CC(=O)N[C@H](C=O)CC(=O)O)c2ccc(F)cc21 [Compound 689b-1, (3S)-3-[(3S)-2-Oxo-3-(3,5-dimethyl-4-hydroxybenzoyl)amino-5-methoxyacetyl-2,3,4,5-tetrahydro-7-fluoro-1H-1,5-benzodiazepine-1-acetylamino]-4-oxobutyric acid]
Ki (ICE; Table 27): 0.0035 µM
IC50 (IL-1β, human whole blood; Homo sapiens, Table 27): 2.7 µM

Cc1cc(C(=O)N[C@H]2CN(C(=O)CO)c3ccccc3N(CC(=O)NC3CC(=O)OC3OCc3ccccc3)C2=O)cc(C)c1O (stereo partly drawn) [Compound 695c, (3S)-2RS-Oxo-3-(3,5-dimethyl-4-hydroxybenzoyl)amino-5-hydroxyacetyl-N-(2-benzyloxy-5-oxo-tetrahydrofuran-3-yl)-2,3,4,5-tetrahydro-1H-1,5-benzodiazepine-1-acetamide]
IC50 (IL-1β, human whole blood; Table 17): 2.5 µM

Nc1c(Cl)cc(C(=O)N[C@H]2CN(C(=O)CO)c3ccccc3N(CC(=O)N[C@H](C=O)CC(=O)O)C2=O)cc1Cl [Compound 697]
Ki (ICE; Table 27): 0.0018 µM
IC50 (IL-1β, human whole blood; Homo sapiens, Table 27): 5 µM

O=C[C@H](CC(=O)O)NC(=O)CN1C(=O)[C@@H](NC(=O)c2nccc3ccccc23)CN(C=O)c2ccccc21 [Compound 698, (3S)-3-[(3S)-2-oxo-3-isoquinolin-1-oylamino-5-formyl-2,3,4,5-tetrahydro-1H-1,5-benzodiazepine-1-acetylamino]-4-oxobutyric acid]
Ki (ICE; Table 27): 0.018 µM
IC50 (IL-1β, human whole blood; Homo sapiens, Table 27): 13.5 µM
